Test results published in patent US6737383B1, “Herbicidal oxadiazolidines” (priority 1999, dated 2004).

Experiments:
redroot pigweed [1] = experiment: Test E redroot pigweed; assay type: in vivo, Amaranthus retroflexus; details: Postemergence; for Plant response rating, Redroot pigweed: 0 to 100 scale
Summary of the method: (§1)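 Plants were grown under normal greenhouse practice; for postemergence, in sandy loam soil mixed 60:40 with potting mix, treated at the 1- to 4-leaf stage. The compound was in a non-phytotoxic solvent carrying a surfactant. After roughly 21 to 28 days plants were scored visually against untreated plants.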

field bindweed = experiment: Test C postemergence field bindweed; assay type: in vivo, Convolvulus arvensis; details: 0 to 100 scale, 0 no effect, 100 complete control
Summary of the method: (§2)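 Compounds in a non-phytotoxic solvent with surfactant were sprayed postemergence on greenhouse-grown plants in 60:40 sandy loam/potting mix. After about 14 to 21 days, visual ratings against untreated controls on a 0 (no effect) to 100 (complete control) scale.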

ivyleaf speedwell = experiment: Test E postemergence ivyleaf speedwell; assay type: in vivo, Veronica hederaefolia; details: for Plant response rating, Veronica hedera: 0 to 100 scale
Summary of the method: as §1

deadnettle = experiment: Test E deadnettle; assay type: in vivo, Lamium amplexicaule; details: Preemergence
surinam grass = experiment: Test C postemergence surinam grass; assay type: in vivo, Brachiaria decumbens; details: 0 to 100 scale, 0 no effect, 100 complete control
Summary of the method: as §2

kochia [2] = experiment: Test E kochia; assay type: in vivo, Kochia scoparia; details: Postemergence; for Plant response rating, Kochia: 0 to 100 scale
Summary of the method: as §1

common poppy = experiment: Test E common poppy; assay type: in vivo, Papaver rhoeas; details: Postemergence
Summary of the method: as §1

rape = experiment: Test E rape; assay type: in vivo, Brassica napus; details: Preemergence
redroot pigweed [3] = experiment: Test C postemergence redroot pigweed; assay type: in vivo, Amaranthus retroflexus; details: 0 to 100 scale, 0 no effect, 100 complete control
Summary of the method: as §2

wild mustard = experiment: Test E wild mustard; assay type: in vivo, Sinapis arvensis; details: Preemergence
lambsquarters = experiment: Test C postemergence lambsquarters; assay type: in vivo, Chenopodium album; details: 0 to 100 scale, 0 no effect, 100 complete control
Summary of the method: as §2

spring wheat = experiment: Test E spring wheat; assay type: in vivo, Triticum aestivum; details: Postemergence; for Plant response rating, Spring Wheat: 0 to 100 scale
Summary of the method: as §1

sunflower = experiment: Test E sunflower; assay type: in vivo, Helianthus annuus; details: Preemergence
chickweed = experiment: Test E chickweed; assay type: in vivo, Stellaria media; details: Postemergence; for Plant response rating, Chickweed: 0 to 100 scale
Summary of the method: as §1

jointed goatgrass = experiment: Test E jointed goatgrass; assay type: in vivo, Aegilops cylindrica; details: Postemergence; for Plant response rating, Jointed goatgra: 0 to 100 scale
Summary of the method: as §1

kochia [4] = experiment: Test E kochia; assay type: in vivo, Kochia scoparia; details: Preemergence
fall panicum = experiment: Test C postemergence fall panicum; assay type: in vivo, Panicum dichotomiflorum; details: 0 to 100 scale, 0 no effect, 100 complete control
Summary of the method: as §2

[5] = Rate 500 g/ha, 0 no effect, 100 complete control
[6] = Rate 250 g/ha, 0 to 100 scale where 0 is no effect and 100 is complete control
[7] = Rate 125 g/ha, 0 to 100 scale (0 no effect, 100 complete control)
[8] = Rate 500 g/ha, 0 to 100 scale where 0 is no effect and 100 is complete control

CC(C)N(C(=O)n1oc(=O)n(C(C)C)c1=O)c1ccc(F)cc1 [Compound 131]
85: Plant response rating, Surinam grass (surinam grass; Rate 560 g/ha)
0: Plant response rating, Redroot pigweed (redroot pigweed [1]; Rate 125 g/ha) | Plant response rating, Redroot pigweed (redroot pigweed [1]; [5]) | Redroot pigweed plant response rating (redroot pigweed [1]; [6]) | Plant response rating Field bindweed (field bindweed; Rate 140 g/ha) | Plant response rating Field bindweed (field bindweed; Rate 280 g/ha) | Plant response rating Field bindweed (field bindweed; Rate 560 g/ha) | Plant response rating, Veronica hedera (ivyleaf speedwell; Rate 125 g/ha) | Veronica hedera plant response rating (ivyleaf speedwell; [6]) | Plant response rating, Surinam grass (surinam grass; Rate 140 g/ha) | Plant response rating, Kochia (kochia [2]; Rate 125 g/ha) | Plant response rating, Kochia (kochia [2]; [5]) | Kochia plant response rating (kochia [2]; [6]) | Plant response rating, Comnion poppy (common poppy; Rate 125 g/ha, 0 to 100 scale) | Plant response rating, Common poppy (common poppy; Rate 500 g/ha, 0 to 100 scale, 0 no effect, 100 complete control) | Common poppy plant response rating (common poppy; [6]) | Plant response rating, Lambsquarters (lambsquarters; Rate 140 g/ha) | Plant response rating, Lambsquarters (lambsquarters; Rate 280 g/ha) | Plant response rating, Lambsquarters (lambsquarters; Rate 1120 g/ha) | Plant response rating, Spring Wheat (spring wheat; Rate 125 g/ha) | Spring Wheat plant response rating (spring wheat; [6]) | Plant response rating, Jointed goatgra (jointed goatgrass; Rate 125 g/ha) | Jointed goatgra plant response rating (jointed goatgrass; [6]) | Plant response rating, Kochia (kochia [4]; [7]) | Plant response rating Fall panicum (fall panicum; Rate 140 g/ha)
50: Plant response rating, Chickweed (chickweed; [5])
90: Plant response rating, Surinam grass (surinam grass; Rate 1120 g/ha) | Plant response rating, Rape (rape; [8]) | Plant response rating Fall panicum (fall panicum; Rate 560 g/ha) | Plant response rating Fall panicum (fall panicum; Rate 1120 g/ha)
65: Plant response rating, Common poppy (common poppy; Rate 62 g/ha, 0 to 100 scale)
60: Plant response rating Field bindweed (field bindweed; Rate 1120 g/ha) | Deadnettle plant response rating (0 to 100 scale) (deadnettle; Rate 250 g/ha) | Plant response rating, Wild mustard (wild mustard; [7]) | Plant response rating, Chickweed (chickweed; Rate 62 g/ha) | Plant response rating, Jointed goatgra (jointed goatgrass; [5])
100: Plant response rating, Deadnettle (deadnettle; [8]) | Wild mustard plant response rating (0 to 100 scale) (wild mustard; Rate 250 g/ha) | Plant response rating, Wild mustard (wild mustard; [8]) | Plant response rating, Kochia (kochia [4]; [8])
80: Plant response rating, Surinam grass (surinam grass; Rate 280 g/ha)
40: Plant response rating, Spring Wheat (spring wheat; [5]) | Plant response rating Fall panicum (fall panicum; Rate 280 g/ha)
20: Plant response rating, Veronica hedera (ivyleaf speedwell; [5]) | Plant response rating, Redroot pigweed (redroot pigweed [3]; Rate 560 g/ha) | Plant response rating, Sunflower (sunflower; [7]) | Sunflower plant response rating (0 to 100 scale) (sunflower; Rate 250 g/ha) | Plant response rating, Sunflower (sunflower; [8]) | Chickweed plant response rating (chickweed; [6])
70: Plant response rating, Rape (rape; [7])
5: Plant response rating, Redroot pigweed (redroot pigweed [1]; Rate 62 g/ha) | Plant response rating, Spring Wheat (spring wheat; Rate 62 g/ha)
30: Plant response rating, Deadnettle (deadnettle; [7]) | Plant response rating, Redroot pigweed (redroot pigweed [3]; Rate 1120 g/ha) | Plant response rating, Jointed goatgra (jointed goatgrass; Rate 62 g/ha)
45: Plant response rating, Kochia (kochia [2]; Rate 62 g/ha)
75: Rape plant response rating (0 to 100 scale) (rape; Rate 250 g/ha)
10: Plant response rating, Redroot pigweed (redroot pigweed [3]; Rate 140 g/ha) | Plant response rating, Redroot pigweed (redroot pigweed [3]; Rate 280 g/ha) | Plant response rating, Chickweed (chickweed; Rate 125 g/ha) | Kochia plant response rating (0 to 100 scale) (kochia [4]; Rate 250 g/ha)
